Assay: Water sorption isotherm (dynamic vapor sorption)
Type: physicochemical
Conditions: 25° C., maintained at 90% relative humidity for 6 hours under humid nitrogen purge
Description: FIG. 11 is a water sorption isotherm showing the water-uptake of Form II of Coumpound 1 and amorphous Coumpound 1 when stored at 25° C. at different relative humidities.
As discussed above, the invention relates to crystalline forms of Coumpound 1 described herein as Form I, Form II, or Form III; and mixtures of at least two of Form I, Form II, or Form III (“the crystalline compounds of the invention”). WO2013017657 makes no mention of any crystalline form of Compound, any method for preparing a crystalline form of Coumpound 1, or any of the properties of the crystalline forms of Coumpound 1 described herein. The compounds of the invention have advantageous properties (e.g., improved stability and reproducibility) as compared to the amorphous form of Coumpound 1 described in Example 1 herein and WO2013017657. Improvements over the amorphous form include, for example, lower hygroscopicity and decreased tendency to convert to a different solid form. For example, the water-uptake of amorphous Coumpound 1 at 25° C. is 1.4% when maintained at 90% relative humidity for 6 hours under humid nitrogen purge. […]
Water sorption isotherms are determined using a dynamic vapor sorption system (Advantage, DVS, London, UK). […]

CC(Oc1ccc(S(C)(=O)=O)cc1C(=O)N1CC2C[C@]2(c2cc(C(F)(F)F)on2)C1)C(F)(F)F (some centres unmarked) [Form II of Coumpound 1]
water-uptake: about 0.04%

CC(Oc1ccc(S(C)(=O)=O)cc1C(=O)N1CC2C[C@]2(c2cc(C(F)(F)F)on2)C1)C(F)(F)F (some centres unmarked) [amorphous Coumpound 1]
water-uptake: 1.4%
